Reference: US20230090255A1, “MAGL INHIBITOR, PREPARATION METHOD THEREFOR AND USE THEREOF” (LUNAN PHARMACEUTICAL GROUP CORPORATION, priority 2019, published 2023)

Assays:
[1] = test system: mice pain response induced by hot plate; test: Mice pain response induced by hot plate; assay type: in vivo, ICR mice; settings: for Pain threshold: hot plate 55°C
Protocol: Female ICR mice (20±2) g were placed on an intelligent hot plate at 55±0.5° C., and latency (s) that the plantar of mice touched the hot plate until the occurrence of a hind paws licking response served as a pain threshold indicator; the mice (response latency <5 s or >30 s) or jumping mice were eliminated.
Grouping and administration were the same as those in Example 40.
The mice were continuously administered intragastrically for 7 consecutive days; the pain threshold of each group of mice was respectively determined once at 30, 60, 90 and 120 min after the final administration; the pain threshold greater than 60 s was calculated by 60 s.

[2] = test system: mice with inflammatory pain; test: Pain threshold of mice with inflammatory pain (complete Freund's adjuvant); assay type: in vivo, SD mice; settings: for Pain threshold: complete Freund's adjuvant paw model
Protocol: […] (180±20) g were injected with a complete Freund’s adjuvant (50 µL/piece) at the right rear plantar of mice, and mice in the control group were injected with the corresponding volume of 0.5% sodium carboxymethylcellulose to establish a paw edema inflammatory pain model. After modeling, the mice were administered for 7 d continuously, and administered intragastrically once per day. Pain thresholds (s) of the mice were respectively determined on the 1st, 3rd and 7th day before administration and after modeling at different periods of time.
Grouping and administration were the same as those of Example 40.

[3] = test system: irritable bowel syndrome rats; test: Irritable bowel syndrome rats induced by early maternal separation; assay type: in vivo, SD rats; set-up: AWR scoring: scale not given here; settings: for Colon 5-HT / Serum 5-HT / AWR scoring: IBS rats
Protocol: The newborn SD male rats were separated from the mother rat in lactation period for 3 h every day on the 2nd to the 21st day after the birth of the newborn SD rats, namely, the mother rat in lactation period was taken out of the cage at 8:30 a.m., and then the newborn rats were removed from the initial cage and put to another separate cage, then the cage was transferred to an adjacent room, then the newborn rats were returned to the initial cage 3 h later, namely, at 11:30 such that the newborn rats and the mother rat got together; the newborn rats were weaned on the 22nd day after birth and separated from the initial cage on the 30th day, grouped on the 60th day, and administered, 20 d in total.
Intragastric administration was performed within the administration period once a day with continuous administration for 20 d.
Test indicators: abdominal withdrawal reflex (AWR); test method: rats were fasted 18 h before the experiment and drank water freely, and narcotized with diethyl ether; then an air sac coated with paraffin oil was inserted into the rats’ colorectum for 4.0 cm, and a catheter outside the anus was fixed at the root of the rat tail with an adhesive tape, and connected with an injection syringe and a sphygmomanometer via three links. The rats were put to an organic glass inspection box (20 cmx12 cm×9 cm), after the rats were awake and fully adapted to the environment for 30 min, the experiment was started. 20, 40 and 60 mm Hg of pressure were respectively applied on the rats, and continuous expansion was performed for 20 s each time with a stimulus interval of 4 min; each pressure was performed for 3 times repeatedly for AWR scoring.
At the end of the experiment, the animals were dissected and weighed, and narcotized to take blood, then the content of 5-HT in serum was determined by high performance liquid chromatography. […] slightly with 0.5% sodium carboxymethylcellulose, and then sucked dry with a filter paper, and placed into a cryogenic tube, and preserved at -20° C. for further use, […] chromatography.

ulcerative colitis mice = test: Mice ulcerative colitis (DSS); assay type: in vivo, BALB/c mice; settings: for Total times of hematochezia within the four periods / Colon length / IL-1 content: DSS mice; for Colon length: four periods; for IL-1 content: serum, ELISA
From the text: Healthy male SPF-level BALB/c mice (8-week old and body mass: (20±2) g).
Modeling: the mice were randomly divided into […] at the end of the quarantine, 10 pieces for each group. The mice in the normal group drank normal water freely, and the rest groups of mice drank 1.0%-1.5% DSS solution freely for modeling, 7 d later after modeling, the mice in the modeling group drank normal water freely for 7 d, and 14 d served as a modeling period for four continuous periods, and the mice in the modeling group were administered at the same time.
End point of the experiment: experimental administration was performed for four periods, and dissection was performed on the 3rd and 4th day of the recovery period of the 4th period.
Test indicators: the mice were weighed twice a week after the beginning of the administration; diarrhea and hematochezia of the mice were observed, and times of hematochezia were recorded.
At the end of the experiment, the mice were dissected and weighed, and narcotized to take blood, then serum was preserved at -80° C. Spleen was taken and weighed to calculate the spleen index. The content of IL-1β in serum was detected via ELISA. Colorectum was cut and taken to measure the length of colorectum, then immobilized by formaldehyde and dyed by HE to detect the pathological change.

[4] = test system: mice writhing caused by acetic acid; test: Mice writhing caused by acetic acid; settings: for Writhing times: 1 h before 0.7% acetic acid ip, within 20 min; for Latent time: time to first writhing; for Inhibition ratio: writhing inhibition
Protocol: Each compound was prepared into a suspension by 0.5% sodium carboxymethylcellulose respectively, and then set according to the dose, and each administration group was administered intragastrically; the model group was administered intragastrically an equal volume of 0.5% sodium carboxymethylcellulose.
Mice were intraperitoneally injected with acetic acid to cause a large area and more lasting painful stimuli in deep enterocoelia, causing mice to produce writhing responses. After being administered for 1 h, each dose group was intraperitoneally injected with 0.7% acetic acid-normal saline solution (0.1 ml/10 g).
The time (pain latent time) that the mice started to appear writhing after being intraperitoneally injected with acetic acid was recorded.
The writhing response times of each mouse within 20 min were recorded after injecting acetic acid to cause pain, and then, the writhing inhibition ratio of each administration group was calculated.
Writhing inhibition ratio = [(writhing times of the control group -writhing times of the administration group)/writhing times of the control group] × 100%
Experimental data is shown by x±s and subjected to variance analysis by SPSS 15.0 software.

## O=C(Nc1cccc(Cl)c1)C1CCN(C(=O)c2cc(O)ccc2F)CC1 [MAGLZ-II-11 (a)]
[1]; compared with the model group
  pain thresholds of the thermal-stimulus mice, in words: significantly extend
[1]; high dose 30 mg/kg ig 7 d, 30 min after final administration
  Pain threshold: 39.45 ± 6.75 s
[1]; high dose 30 mg/kg ig 7 d, 60 min
  Pain threshold: 46.56 ± 6.35 s
[1]; high dose 30 mg/kg ig 7 d, 90 min
  Pain threshold: 45.42 ± 6.84 s
[1]; high dose 30 mg/kg ig 7 d, 120 min
  Pain threshold: 43.73 ± 5.68 s
[1]; low dose 7.5 mg/kg ig 7 d, 30 min after final administration
  Pain threshold: 36.18 ± 8.50 s
[1]; low dose 7.5 mg/kg ig 7 d, 60 min
  Pain threshold: 43.17 ± 7.43 s
[1]; low dose 7.5 mg/kg ig 7 d, 90 min
  Pain threshold: 42.83 ± 7.34 s
[1]; low dose 7.5 mg/kg ig 7 d, 120 min
  Pain threshold: 42.16 ± 7.05 s
[1]; middle dose 15 mg/kg ig 7 d, 30 min after final administration
  Pain threshold: 38.16 ± 7.00 s
[1]; middle dose 15 mg/kg ig 7 d, 60 min
  Pain threshold: 45.47 ± 7.03 s
[1]; middle dose 15 mg/kg ig 7 d, 90 min
  Pain threshold: 43.71 ± 5.87 s
[1]; middle dose 15 mg/kg ig 7 d, 120 min
  Pain threshold: 42.34 ± 7.04 s
[2]; compared with the model group
  pain threshold of the mice with inflammatory pain, in words: significantly extend
[2]; high dose 30 mg/kg ig once per day, 0 d
  Pain threshold: 12.97 ± 2.32 s
[2]; high dose 30 mg/kg ig once per day, 1 d
  Pain threshold: 7.83±1.01^∗∗∗ s
[2]; high dose 30 mg/kg ig once per day, 3 d
  Pain threshold: 9.55±1.58^∗∗∗ s
[2]; high dose 30 mg/kg ig once per day, 7 d
  Pain threshold: 11.00±161.00^∗∗∗ s
[2]; low dose 7.5 mg/kg ig once per day, 0 d
  Pain threshold: 12.96 ± 2.44 s
[2]; low dose 7.5 mg/kg ig once per day, 1 d
  Pain threshold: 7.38±1.19^∗∗∗ s
[2]; low dose 7.5 mg/kg ig once per day, 3 d
  Pain threshold: 8.87±0.74^∗∗∗ s
[2]; low dose 7.5 mg/kg ig once per day, 7 d
  Pain threshold: 9.91±1.05^∗∗∗ s
[2]; middle dose 15 mg/kg ig once per day, 0 d
  Pain threshold: 13.03 ± 2.35 s
[2]; middle dose 15 mg/kg ig once per day, 1 d
  Pain threshold: 7.58±0.84^∗∗∗ s
[2]; middle dose 15 mg/kg ig once per day, 3 d
  Pain threshold: 9.30±0.75^∗∗∗ s
[2]; middle dose 15 mg/kg ig once per day, 7 d
  Pain threshold: 10.66±1.30^∗∗∗ s
[3]; high dose 30 mg/kg ig 20 d
  Colon 5-HT: 12.65±3.36^∗∗∗ µg/mg
  Serum 5-HT: 24.05±6.17^∗∗∗ µg/ml
[3]; high dose 30 mg/kg ig 20 d, 20 mm Hg
  AWR scoring: 1.23±0.50^∗∗ ∗
[3]; high dose 30 mg/kg ig 20 d, 40 mm Hg
  AWR scoring: 2.13±0.48^∗∗∗
[3]; high dose 30 mg/kg ig 20 d, 60 mm Hg
  AWR scoring: 2.87±0.46^∗∗∗
[3]; low dose 7.5 mg/kg ig 20 d
  Colon 5-HT: 16.33±2.78^∗∗ µg/mg
  Serum 5-HT: 31.76±5.42^∗∗ µg/ml
[3]; low dose 7.5 mg/kg ig 20 d, 20 mm Hg
  AWR scoring: 2.12±0.36^∗∗ ∗
[3]; low dose 7.5 mg/kg ig 20 d, 40 mm Hg
  AWR scoring: 3.02±0.53^∗
[3]; low dose 7.5 mg/kg ig 20 d, 60 mm Hg
  AWR scoring: 3.58±0.26^∗∗
[3]; middle dose 15 mg/kg ig 20 d
  Colon 5-HT: 14.79±2.73^∗∗∗ µg/mg
  Serum 5-HT: 29.89±5.34^∗∗∗ µg/ml
[3]; middle dose 15 mg/kg ig 20 d, 20 mm Hg
  AWR scoring: 1.51±0.43^∗∗ ∗
[3]; middle dose 15 mg/kg ig 20 d, 40 mm Hg
  AWR scoring: 2.52±0.38^∗∗∗
[3]; middle dose 15 mg/kg ig 20 d, 60 mm Hg
  AWR scoring: 3.27±0.48^∗∗∗
[3]; compared with the model group
  5-HT level in colon and serum, in words: significantly decrease
  AWR scoring, in words: significantly decrease
Ulcerative colitis mice; high dose 30 mg/kg ig
  Total times of hematochezia within the four periods: 27.90±3.73
  Colon length: 7.56±0.74 cm
  IL-1 content: 38.61 ± 10.98 pg/mL
Ulcerative colitis mice; low dose 7.5 mg/kg ig
  Total times of hematochezia within the four periods: 28.80±7.04
  Colon length: 7.21±1.10 cm
  IL-1 content: 42.01 ± 13.92 pg/mL
Ulcerative colitis mice; middle dose 15 mg/kg ig
  Total times of hematochezia within the four periods: 29.10±7.14
  Colon length: 7.20±0.97 cm
  IL-1 content: 40.70 ± 8.50 pg/mL
Ulcerative colitis mice; compared with the model group
  IL-1 content, in words: decrease
  colon length, in words: significantly increase
  total times of hematochezia, in words: reduce
[4]; compared with the model group
  latent time, in words: extend
  mice writhing times caused by acetic acid, in words: significantly decrease
[4]; high dose 30 mg/kg ig
  Writhing times: 12.5±9.4
  Latent time: 488.8 ± 172.0 s
  Inhibition ratio: 68.2%
[4]; low dose 7.5 mg/kg ig
  Writhing times: 22.6±12.0
  Latent time: 401.2 ± 168.3 s
  Inhibition ratio: 42.5%
[4]; middle dose 15 mg/kg ig
  Writhing times: 18.6±14.6
  Latent time: 438.9 ± 230.0 s
  Inhibition ratio: 52.7%
